Consider one molecule from patent US20080319191A1, “Crystalline form IV of linezolid” (Teva Pharmaceutical Industries Ltd., priority 2005, published 2008).

Holding throughout (type): physicochemical
The nature of series [1]: Long term stability of linezolid Form IV at room temperature and accelerated conditions (40° C. and 55° C.). On the procedure:
The long term stability of linezolid Form IV was tested by storing it at room temperature and under accelerated conditions at 40° C. and 55° C.

Series [2] is described as follows: Stability of linezolid Form IV stored 10 days at 0-100% relative humidity at room temperature. On the procedure:
The stability of linezolid Form IV was tested by storing it for 10 days at a relative humidity of between 0 and 100% at room temperature.

Series [3] is described as follows: Chemical stability of Form IV obtained by heating Form II at 170° C. As to conditions: Form IV obtained at 170° C. (one hour). On the procedure: Crystalline linezolid Form IV may be prepared by heating crystalline linezolid Form II to a temperature higher than 85° C. Crystalline linezolid Form IV is obtained by keeping crystalline linezolid Form II at a temperature of between 85-175° C. As an example, crystalline linezolid Form II was kept at a temperature of 170° C. during one hour. The polymorphic form of crystalline linezolid Form II was changed to crystalline linezolid Form IV.

Consider `CC(=O)NC[C@H]1CN(c2ccc(N3CCOCC3)c(F)c2)C(=O)O1` [linezolid Form IV], for which the “Crystal form after storage (Results)” value in series [1] (25° C., 1 M) was “Form IV”; in series [1] (25° C., 2 M), “Form IV”; in series [1] (25° C., 3 M) it was “Form IV”; in series [1] (25° C., As is) it was “Form IV”; in series [1] (40° C., 1 M), “Form IV”; in series [1] (40° C., 2 M) it was “Form IV”. Further, the “Crystal form after storage (Results)” value in series [1] (40° C., 3 M) is listed as “Form IV”; in series [1] (55° C., 1 M), “Form IV”; in series [1] (55° C., 2 M), “Form IV”; in series [1] (55° C., 3 M) it was “Form IV”. The “Time stable on storage” value in series [1] (25° C., 40° C., and 55° C.) was not below 3 months. For the same molecule, the Solvent content in series [2] (As is (before storage)) was found to be 0.1%; in series [2] (relative humidity 0%, 10 days, room temperature), 0.1%; in series [2] (relative humidity 20%, 10 days, room temperature), 0.1%; in series [2] (relative humidity 40%, 10 days, room temperature), 0.1%; in series [2] (relative humidity 60%, 10 days, room temperature) it was 0.1%; in series [2] (relative humidity 80%, 10 days, room temperature), 0.1%. Also, the Solvent content in series [2] (relative humidity 100%, 10 days, room temperature) came to 0.1%. Moreover, the Hygroscopicity result in series [2] (between 0-100% RH) is given as “non-hygroscopic”. For the same molecule, in series [2] (between 0-100% RH), the Stability result is reported as “stable”. Moreover, the “Time stable against transformation into Form II upon storage” value in series [2] (relative humidity of about 0% to about 100%, room temperature) is recorded as “at least 10 days”. Further, the Chemical stability entry in series [3] is “chemically stable”.
